According to US8680290B2, “Isoxazoline derivatives and their use as herbicides” (Syngenta Limited, priority 2004, dated 2014):

Key:
[1] = system: Monocotyledonous and dicotyledonous test plants; assay: Example B1 herbicidal action, application post-emergence (Table B1a); format: in vivo; details: 250 g/ha, evaluated after 3 weeks, scale 0-10
Procedure, shortened: (§1)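 Compounds sprayed as aqueous solution from acetone/Emulsogen EL/NMP/dipropylene glycol monomethyl ether/X-77 formulation onto soil right after sowing (pre-emergence) or onto 8–9-day plants (post-emergence); greenhouse-grown. Damage scored 0 (none) to 10 (total) after 4 weeks pre- or 3 weeks post-emergence.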

[2] = system: Monocotyledonous and dicotyledonous test plants; assay: Example B1 herbicidal action, application pre-emergence (Table B1b); format: in vivo; details: 250 g/ha, evaluated after 4 weeks
Procedure, shortened: as §1

[3] = system: Monocotyledonous and dicotyledonous test plants; assay: Example B2 herbicidal action, application post-emergence, 96-cell seed trays (Table B2a); format: in vivo; details: 1000 g/ha
Description: Monocotyledonous and dicotyledonous test plants were sown in sterilised standard soil in seed trays each having 96 cells. After one day (pre-emergence) or after 8 to 9 days cultivation (post-emergence) under controlled conditions in a climatic chamber (cultivation at 17/23° C.; 13 hours light; 50-60% humidity; after application at 19/24° C.), the plants were treated with an aqueous spray solution of 1000 mg/l of the active ingredient used (rate of application: […]; incl. 10% DMSO as solvent). The plants were grown on in the climatic chamber until the test was evaluated (10 total damage to plant, 0=no damage to plant) after 9 or 13 days.

[4] = system: Monocotyledonous and dicotyledonous test plants; assay: Example B2 herbicidal action, application pre-emergence, 96-cell seed trays (Table B2b); format: in vivo; details: 1000 g/ha
Procedure, shortened: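 Mono- and dicot plants in sterilised soil, 96-cell trays, sprayed 1 day after sowing (pre-emergence) or after 8–9 days growth (post-emergence) with aqueous 1000 mg/l active ingredient, 10% DMSO; climatic chamber 17/23° C, 13 h light. Damage scored 0–10 after 9 or 13 days.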

maize [5] = assay: Example F1 post-emergent safening test on maize (Table F1, Marista 11f); format: in vivo; details: post-emergent (GS 11), after 28 days
Description: The test plants were sown in containers under glasshouse conditions. A standard earth was used as the culture substrate. In a maize growth stage of one leaf (GS 11), the herbicides were applied both by themselves and in a mixture with safeners to the soil and leaf surface. The application was carried out with an aqueous suspension of the test substances, prepared from a 25% wettable powder (Example F3,b according to WO 97/34485) or a suspension concentrate (Example F8 according to WO 97/34485), to achieve a field equivalent of 200 l/ha. The tests were evaluated after 28 days (100%=plants completely dead; 0%=no phytotoxic action on the plants).

maize [6] = assay: Example E1 pre-emergent safening test on maize (Tables E1 Marista, E2 Lorenzo); format: in vivo; details: after 14 days
Description: The test plants were sown in seed trays under greenhouse conditions. A standard earth was used as the culture substrate. In a pre-emergent stage, the herbicides were applied both by themselves and in a mixture with safeners to the soil surface. The application was carried out with an aqueous suspension of the test substances, prepared from a 25% wettable powder (Example F3, b according to WO 97/34485) or from a suspension concentrate (Example F8 according to WO 97/34485), to achieve a field equivalent of 200 l/ha. The tests were evaluated after 14 days (100%=plants completely dead; 0%=no phytotoxic action on the plants).

Row | Structure (SMILES) | herbicidal damage rating, Abutilon [1] | herbicidal damage rating, Amaranthus [1] | herbicidal damage rating, Digitaria [1] | herbicidal damage rating, Panicum [1] | herbicidal damage rating, Setaria [1] | herbicidal damage rating, Sida [1] | herbicidal action (damage rating 0-10), Amaranthus [2] | herbicidal action (damage rating 0-10), Digitaria [2] | herbicidal action (damage rating 0-10), Panicum [2] | herbicidal action (damage rating 0-10), Setaria [2] | herbicidal action (damage rating 0-10), Sida [2] | herbicidal action (damage rating 0-10), Agrostis [3] | herbicidal action (damage rating 0-10), Amaranthus [3] | herbicidal action (damage rating 0-10), Poa [3] | herbicidal action (damage rating 0-10), Setaria [3] | herbicidal action (damage rating 0-10), Agrostis [4] | herbicidal action (damage rating 0-10), Digitaria [4] | herbicidal action (damage rating 0-10), Poa [4] | herbicidal action (damage rating 0-10), Setaria [4] | further results
1 | CC1(C)CC([S+]([O-])C(Cl)c2c(F)cccc2Cl)=NO1 (single isomer, unassigned) [1.34] | 3 | 5 | 5 | 8 | 6 | 3 | 9 | 9 | 10 | 10 | 7 | 8 | 5 | 8 | 8 | – | – | – | – | –
2 | CC1(C)CC(S(=O)(=O)C(Cl)c2c(F)cccc2F)=NO1 (centres unmarked) [Compound No. 1.07, 3-[chloro-(2,6-difluoro-phenyl)-methanesulfonyl]-5,5-dimethyl-4,5-dihydroisoxazole] | 5 | 3 | 5 | 7 | 7 | 2 | 8 | 10 | 10 | 10 | 7 | 8 | 7 | 8 | 7 | 10 | 10 | 10 | 10 | –
3 | Cn1nc(C(F)(F)F)c(C(Br)S(=O)(=O)C2=NOC(C)(C)C2)c1OCC(F)(F)F (centres unmarked) [2.10] | 6 | 8 | 6 | 7 | 5 | 4 | 10 | 10 | 10 | 10 | 8 | – | – | – | – | – | – | – | – | phytotoxic action on maize (Marista 11f) (maize [5]; herbicide alone 37.5 g/ha): 20%; phytotoxic action on maize (Marista 11f) (maize [5]; herbicide alone 75 g/ha): 50%; phytotoxic action on maize (Marista 11f) (maize [5]; herbicide alone 150 g/ha, 100%=plants completely dead): 75%
4 | CC1(C)CC(S(=O)(=O)C(F)c2c(F)cccc2F)=NO1 (centres unmarked) [1.06] | – | – | – | – | – | – | 10 | 5 | 10 | 9 | 7 | 8 | 8 | 8 | 7 | 10 | 10 | 10 | 10 | –
5 | CC(=O)C(c1c(F)cccc1F)S(=O)(=O)C1=NOC(C)(C)C1 (centres unmarked) [Compound No. 1.27, 1-(2,6-difluorophenyl)-1-(5,5-dimethyl-4,5-dihydroisoxazole-3-sulfonyl)-propan-2-one] | 4 | – | 2 | 5 | 3 | 4 | 7 | 4 | 9 | 5 | 2 | – | – | – | – | 10 | 9 | 9 | 9 | melting point: 116 °C
6 | Cn1nc(C(F)(F)F)c(C(Cl)S(=O)(=O)C2=NOC(C)(C)C2)c1OCC(F)(F)F (centres unmarked) [2.04] | 7 | 4 | 4 | 8 | 6 | 6 | 10 | 10 | 10 | 10 | 8 | – | – | – | – | – | – | – | – | phytotoxic action on maize (Lorenzo) (maize [6]; herbicide alone 100 g/ha): 2.5%; phytotoxic action on maize (Marista) (maize [6]; herbicide alone 100 g/ha): 10%; phytotoxic action on maize (Lorenzo) (maize [6]; herbicide alone 200 g/ha): 17.5%; phytotoxic action on maize (Marista) (maize [6]; herbicide alone 200 g/ha): 15%
7 | Cc1cccc(C(Cl)(Cl)S(=O)(=O)C2=NOC(C)(C)C2)c1 [Compound No. 1.31, 3-[dichloro-m-tolyl-methanesulfonyl]-5,5-dimethyl-4,5-dihydroisoxazole] | 3 | – | 1 | 7 | 0 | 7 | 0 | 9 | 9 | 7 | 0 | – | – | – | – | 9 | 9 | 9 | 10 | melting point: 89 °C
8 | CC1(C)CC(S(=O)(=O)C(Cl)c2c(F)cccc2Cl)=NO1 (centres unmarked) [1.32] | – | – | – | – | – | – | – | – | – | – | – | 8 | 6 | 8 | 6 | – | – | – | – | –
